# Test results reported in patent US20240158446A1, “CYCLIC COMPOUND HAVING SELECTIVE INHIBITORY ACTION ON KRAS OVER HRAS AND NRAS” (CHUGAI SEIYAKU KABUSHIKI KAISHA, priority 2021, published 2024).
# Like-named read-outs stand apart in the source and are kept apart here. Where a SMILES comes first, the peptide text is derived from it. Bridges are numbered along the chain shown (N, C = ends). [ ]: non-standard residue; d: D form. The star is where a group is joined. hPhe(3-Cl-4-CF3) = N[C@@H](CCc1ccc(C(F)(F)F)c(Cl)c1)C(=O)O; NPrPhe(4-CF3) = CCCN[C@@H](Cc1ccc(C(F)(F)F)cc1)C(=O)O; NMeAbu(4,4,4-F3) = CN[C@@H](CC(F)(F)F)C(=O)O; Abu(4,4,4-F3) = N[C@@H](CC(F)(F)F)C(=O)O; NMeGly(cPent) = CN[C@H](C(=O)O)C1CCCC1; Pro(4,4-F2) = O=C(O)[C@@H]1CC(F)(F)CN1; Hyp = O=C(O)[C@@H]1C[C@@H](O)CN1; NMeD = CN[C@@H](CC(=O)O)C(=O)O; NMeL = CN[C@@H](CC(C)C)C(=O)O; Morpholide = C1CN(*)CCO1; NMeA = CN[C@@H](C)C(=O)O; Ac5c = NC1(C(=O)O)CCCC1; Aze = O=C(O)[C@@H]1CCN1; Ac4c = NC1(C(=O)O)CCC1; NPrGly = CCCNCC(=O)O; NEtG = CCNCC(=O)O; Sar = CNCC(=O)O
# How the values were obtained:
# [1] = target: GDP-bound HRAS wild-type protein (Homo sapiens, UniProt P01112); test: Binding to HRAS by surface plasmon resonance (SPR), Single Cycle Kinetics; conditions: for HRAS/KRAS (ratio of KD value with respect to HRAS to KD value with respect to KRAS) / HRAS/KRAS (ratio of KD value for HRAS to KD value for KRAS): SPR, GDP-bound HRAS wild-type protein vs GDP-bound KRAS wild-type protein
# [2] = target: GDP-bound NRAS wild-type protein (Homo sapiens, UniProt P01111); test: Binding to NRAS by surface plasmon resonance (SPR), Single Cycle Kinetics; conditions: for NRAS/KRAS (ratio of KD value with respect to NRAS to KD value with respect to KRAS) / NRAS/KRAS (ratio of KD value for NRAS to KD value for KRAS): SPR, GDP-bound NRAS wild-type protein vs GDP-bound KRAS wild-type protein
# [3] = target: GDP-bound KRAS wild-type protein (Homo sapiens, UniProt P01116); test: Binding to KRAS by surface plasmon resonance (SPR), Single Cycle Kinetics; conditions: GDP-bound KRAS wild-type protein, read-out: KRAS KD
# [4] = SPR Single Cycle Kinetics, 1:1 binding model
# Chain of GDP-bound NRAS wild-type protein (P01111 whole entry): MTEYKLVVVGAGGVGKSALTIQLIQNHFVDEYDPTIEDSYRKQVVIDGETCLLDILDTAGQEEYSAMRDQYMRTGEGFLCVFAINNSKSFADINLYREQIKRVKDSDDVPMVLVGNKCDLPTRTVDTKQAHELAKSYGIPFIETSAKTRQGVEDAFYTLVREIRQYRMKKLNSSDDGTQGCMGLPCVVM
# Chain of GDP-bound KRAS wild-type protein (P01116 whole entry): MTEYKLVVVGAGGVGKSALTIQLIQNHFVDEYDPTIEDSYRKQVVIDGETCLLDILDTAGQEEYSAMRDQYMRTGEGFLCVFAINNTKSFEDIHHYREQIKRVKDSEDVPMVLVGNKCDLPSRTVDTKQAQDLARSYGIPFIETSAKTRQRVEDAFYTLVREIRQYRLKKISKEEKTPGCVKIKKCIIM
# Chain of GDP-bound HRAS wild-type protein (P01112 whole entry): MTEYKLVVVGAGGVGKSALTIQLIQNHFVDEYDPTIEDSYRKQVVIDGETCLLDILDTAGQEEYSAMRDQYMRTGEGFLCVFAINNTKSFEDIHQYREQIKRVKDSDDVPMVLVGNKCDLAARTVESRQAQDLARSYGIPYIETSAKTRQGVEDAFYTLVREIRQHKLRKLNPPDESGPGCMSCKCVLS
SMILES,"Kd [3, 4]","Kd ([3]; SPR, Single Cycle Kinetics)",HRAS/KRAS (ratio of KD value with respect to HRAS to KD value with respect to KRAS) [1],NRAS/KRAS (ratio of KD value with respect to NRAS to KD value with respect to KRAS) [2],HRAS/KRAS (ratio of KD value for HRAS to KD value for KRAS) [1],NRAS/KRAS (ratio of KD value for NRAS to KD value for KRAS) [2],"HRAS/KRAS (ratio of KD value with respect to GDP-bound HRAS wild-type protein to KD value with respect to KRAS) ([1]; SPR KD ratio HRAS/KRAS, class symbols)","NRAS/KRAS (ratio of KD value with respect to GDP-bound NRAS wild-type protein to KD value with respect to KRAS) ([2]; SPR KD ratio NRAS/KRAS, class symbols)"
CCCN1CC(=O)NC2(CCCC2)C(=O)N(C)[C@@H](C2CCCC2)C(=O)N(C)[C@H](C(=O)N2CCOCC2)CC(=O)N(C)[C@@H](CC(C)C)C(=O)N[C@@H]([C@@H](C)CC)C(=O)N(C)[C@@H](C)C(=O)N2CC[C@H]2C(=O)N(CCC)[C@@H](Cc2ccc(C(F)(F)F)cc2)C(=O)N(C)CC(=O)N[C@@H](CCc2ccc(C(F)(F)F)c(Cl)c2)C1=O [PP0288] ([NMeL]I[NMeA][Aze][NPrPhe(4-CF3)][Sar][hPhe(3-Cl-4-CF3)][NPrGly][Ac5c][NMeGly(cPent)][NMeD]-Morpholide; lactam N-11),0.42 nM,,,,B (a compound having 3 or more and less than 10 is denoted as B),C (A compound having a KD ratio of 0.1 or more and less than 3 is denoted as C),,
"CCCN1C(=O)[C@@H]2CCN2C(=O)CN(C)C(=O)[C@H]([C@@H](C)CC)NC(=O)[C@H](CC(C)C)N(C)C(=O)C[C@@H](C(=O)N2CCOCC2)N(C)C(=O)[C@H](C2CCCC2)N(C)C(=O)C2(CCCC2)NC(=O)[C@@H]2CC(F)(F)CN2C(=O)[C@H](CCc2ccc(C(F)(F)F)c(Cl)c2)NC(=O)CN(C)C(=O)[C@@H]1Cc1ccc(C(F)(F)F)cc1 [PP0408] ([NMeL]I[Sar][Aze][NPrPhe(4-CF3)][Sar][hPhe(3-Cl-4-CF3)][Pro(4,4-F2)][Ac5c][NMeGly(cPent)][NMeD]-Morpholide; lactam N-11)",0.094 nM,,,,B (a compound having 3 or more and less than 10 is denoted as B),C (A compound having a KD ratio of 0.1 or more and less than 3 is denoted as C),,
"CCCN1C(=O)CN(C)C(=O)CN(CC)C(=O)[C@H](CC(F)(F)F)NC(=O)[C@H](CC(C)C)N(C)C(=O)C[C@@H](C(=O)N2CCOCC2)N(C)C(=O)[C@H](C2CCCC2)N(C)C(=O)C2(CCCC2)NC(=O)[C@@H]2CCCN2C(=O)[C@H](CCc2ccc(C(F)(F)F)c(Cl)c2)NC(=O)CN(C)C(=O)[C@@H]1Cc1ccc(C(F)(F)F)cc1 [PP0291] ([NMeL][Abu(4,4,4-F3)][NEtG][Sar][NPrPhe(4-CF3)][Sar][hPhe(3-Cl-4-CF3)]P[Ac5c][NMeGly(cPent)][NMeD]-Morpholide; lactam N-11)",2.2 nM,,,,B (a compound having 3 or more and less than 10 is denoted as B),B (a compound having 3 or more and less than 10 is denoted as B),,
CCO[C@@H]1C[C@H]2C(=O)NC3(CC(C)(C)C3)C(=O)N(C)[C@@H](C(CC)CC)C(=O)N(C)[C@H](C(=O)N(C)C)CC(=O)N(C)[C@H]3CCC/C=C/c4ccc(cc4)C[C@@H](C(=O)N(C)CC(=O)N[C@@H](CCc4ccc(Cl)c(Cl)c4)C(=O)N2C1)N1CC/C=C\C[C@@H](C1=O)N(C)C(=O)CN(C)C(=O)[C@H]([C@@H](C)CC)NC3=O [PP2580],0.2 nM,,,,,,A (a compound having 10 or more and less than 20 is denoted as A),AA (a compound having 20 or more is denoted as AA)
CCCN1C(=O)CN(C)C(=O)CN(CC)C(=O)[C@H]([C@@H](C)CC)NC(=O)[C@H](CC(C)C)N(C)C(=O)C[C@@H](C(=O)N2CCOCC2)NC(=O)[C@H](C2CCCC2)N(C)C(=O)C2(CCC2)NC(=O)[C@@H]2C[C@@H](OCC)CN2C(=O)[C@H](CCc2ccc(C(F)(F)F)c(Cl)c2)NC(=O)CN(C)C(=O)[C@@H]1Cc1ccc(C(F)(F)F)cc1 [PP0336] ([NMeL]I[NEtG][Sar][NPrPhe(4-CF3)][Sar][hPhe(3-Cl-4-CF3)][Hyp](Et)[Ac4c][NMeGly(cPent)]D-Morpholide; lactam N-11),1.6 nM,,,,B (a compound having 3 or more and less than 10 is denoted as B),B (a compound having 3 or more and less than 10 is denoted as B),,
"CCCN1C(=O)CN(C)C(=O)CN(C)C(=O)[C@H]([C@@H](C)CC)NC(=O)[C@H](CC(F)(F)F)N(C)C(=O)C[C@@H](C(=O)N2CCOCC2)N(C)C(=O)[C@H](C2CCCC2)N(C)C(=O)C2(CCCC2)NC(=O)[C@@H]2CCCN2C(=O)[C@H](CCc2ccc(C(F)(F)F)c(Cl)c2)NC(=O)CN(C)C(=O)[C@@H]1Cc1ccc(C(F)(F)F)cc1 [PP0187] ([NMeAbu(4,4,4-F3)]I[Sar][Sar][NPrPhe(4-CF3)][Sar][hPhe(3-Cl-4-CF3)]P[Ac5c][NMeGly(cPent)][NMeD]-Morpholide; lactam N-11)",0.19 nM,,,,C (A compound having a KD ratio of 0.1 or more and less than 3 is denoted as C),B (a compound having 3 or more and less than 10 is denoted as B),,

# The next lines start with results.
"Kd [3, 4]","Kd ([3]; SPR, Single Cycle Kinetics)",SMILES,HRAS/KRAS (ratio of KD value with respect to HRAS to KD value with respect to KRAS) [1],NRAS/KRAS (ratio of KD value with respect to NRAS to KD value with respect to KRAS) [2],HRAS/KRAS (ratio of KD value for HRAS to KD value for KRAS) [1],NRAS/KRAS (ratio of KD value for NRAS to KD value for KRAS) [2],"HRAS/KRAS (ratio of KD value with respect to GDP-bound HRAS wild-type protein to KD value with respect to KRAS) ([1]; SPR KD ratio HRAS/KRAS, class symbols)","NRAS/KRAS (ratio of KD value with respect to GDP-bound NRAS wild-type protein to KD value with respect to KRAS) ([2]; SPR KD ratio NRAS/KRAS, class symbols)"
3.1 nM,,CC[C@H](C)[C@@H]1NC(=O)[C@H](CC(C)C)N(C)C(=O)C[C@@H](C(=O)N2CCOCC2)N(C)C(=O)[C@H](C2CCCC2)N(C)C(=O)C2(CCCC2)NC(=O)[C@@H]2[C@@H](O)CCN2C(=O)[C@H](CCc2cc(F)c(C(F)(F)F)c(F)c2)NC(=O)CN(C)C(=O)[C@H](Cc2ccc(C(F)(F)F)cc2)N2CCCCC[C@@H](C2=O)N(C)C(=O)CN(C)C1=O [PP0662],B (a compound having 3 or more and less than 10 is denoted as B),B (a compound having 3 or more and less than 10 is denoted as B),,,,
,0.4 nM,CCO[C@@H]1C[C@H]2C(=O)NC3(CCC3)C(=O)N(C)[C@@H](CC(F)F)C(=O)N(C)[C@H](C(=O)N3CCOCC3)CC(=O)N(C)[C@@H](CC(C)C)C(=O)N[C@@H]([C@@H](C)CC)C(=O)N(C)CC(=O)N(C)[C@H]3CCCCN(C3=O)[C@@H](Cc3ccc(C(F)(F)F)cc3)C(=O)N(C)CC(=O)N[C@@H](CCc3cc(F)c(C(F)(F)F)c(F)c3)C(=O)N2C1 [PP0813],,,B (a compound having 3 or more and less than 10 is denoted as B),C (A compound having a KD ratio of 0.1 or more and less than 3 is denoted as C),,
,0.21 nM,C=CCCCC[C@H]1C(=O)N[C@@H]([C@@H](C)CC)C(=O)N(C)CC(=O)N(C)[C@H]2CCCCN(C2=O)[C@@H](Cc2ccc(C(F)(F)F)cc2)C(=O)N(C)CC(=O)N[C@@H](CCc2cc(F)c(C(F)(F)F)c(F)c2)C(=O)N2C[C@H](OCC)C[C@H]2C(=O)N[C@](C)(CC=C)C(=O)N(C)[C@@H](C2CCCC2)C(=O)N(C)[C@H](C(=O)N2CCOCC2)CC(=O)N1C [PP0877],,,B (a compound having 3 or more and less than 10 is denoted as B),C (A compound having a KD ratio of 0.1 or more and less than 3 is denoted as C),,
,5.7 nM,CCO[C@@H]1C[C@H]2C(=O)NC3(CCC3)C(=O)N(C)[C@@H](CC(F)F)C(=O)N(C)[C@H](C(=O)N3CCOCC3)CC(=O)N(C)[C@@H](CC(C)C)C(=O)N[C@@H]([C@@H](C)CC)C(=O)N(C)CC(=O)N(C)[C@H]3CCCCCN(C3=O)[C@@H](Cc3ccc(C(F)(F)F)cc3)C(=O)N(C)CC(=O)N[C@@H](CCc3cc(F)c(C(F)(F)F)c(F)c3)C(=O)N2C1 [PP0822],,,B (a compound having 3 or more and less than 10 is denoted as B),B (a compound having 3 or more and less than 10 is denoted as B),,
0.1 nM,,CC[C@H](C)[C@@H]1NC(=O)[C@H](CC(C)C)N(C)C(=O)C[C@@H](C(=O)N2CCOCC2)N(C)C(=O)[C@H](C2CCCC2)N(C)C(=O)C2(COC2)NC(=O)[C@@H]2CCCN2C(=O)[C@H](CCc2cc(F)c(C(F)(F)F)c(F)c2)NC(=O)CN(C)C(=O)[C@H](Cc2ccc(C(F)(F)F)cc2)N2CCCC[C@@H](C2=O)N(C)C(=O)CN(C)C1=O [PP0563],B (a compound having 3 or more and less than 10 is denoted as B),B (a compound having 3 or more and less than 10 is denoted as B),,,,
,0.039 nM,CCO[C@@H]1C[C@H]2C(=O)NC3(CCC3)C(=O)N(C)[C@@H](C(C)(C)C)C(=O)N(C)[C@H](C(=O)N3CCOCC3)CC(=O)N(C)[C@@H](CC(C)C)C(=O)N[C@@H]([C@@H](C)CC)C(=O)N(C)CC(=O)N(C)[C@H]3CCCCN(C3=O)[C@@H](Cc3ccc(C(F)(F)F)cc3)C(=O)N(C)CC(=O)N[C@@H](CCc3cc(F)c(C(F)(F)F)c(F)c3)C(=O)N2C1 [PP0814],,,B (a compound having 3 or more and less than 10 is denoted as B),B (a compound having 3 or more and less than 10 is denoted as B),,
0.014 nM,,CCO[C@@H]1C[C@H]2C(=O)NC3(CCC3)C(=O)N(C)[C@@H](C3CCCC3)C(=O)N(C)[C@H](C(=O)N(C)C)CC(=O)N(C)[C@@H](C)C(=O)N[C@@H]([C@@H](C)CC)C(=O)N(C)CC(=O)N(C)[C@H]3CCCCN(C3=O)[C@@H](Cc3ccc(C(F)(F)F)cc3)C(=O)N(C)CC(=O)N[C@@H](CCc3cc(F)c(C(F)(F)F)c(F)c3)C(=O)N2C1 [PP0587],C (A compound having a KD ratio of 0.1 or more and less than 3 is denoted as C),C (A compound having a KD ratio of 0.1 or more and less than 3 is denoted as C),,,,
